According to patent EP2027850A1, “Pharmaceutical compositions containing voriconazole” (SANDOZ AG, priority 2007, dated 2009):

Assay: solubility of voriconazole in N-methylpyrrolidone and water / NMP mixtures
Assay type: physicochemical
Procedure: This can also be used to improve the solubility of voriconazole in aqueous solutions.
0.210 g Voriconazole are dissolved in 50 mL N-Methylpyrrolidone (NMP) using a magnetic stirrer. Further aliquots of 0.305 g, 0.519 g and 1.009 Voriconazole are added to NMP-solution using magnet stirring. Solution I is obtained, composed of […] Voriconazole in 50 mL NMP.
0.45 - 0.55 g Voriconazole are dissolved in NMP according to example 1. After obtaining a clear solution, solutions are made up with water to 20.0 mL.
Therefore, in 20 mL solution, 0.5 g Voriconazole can be dissolved with water / NMP mixtures.

## C[C@@H](c1ncncc1F)[C@](O)(Cn1cncn1)c1ccc(F)cc1F [Voriconazole, (2R,3S)-2-(2,4-Difluorophenyl)-3-(5-fluoro-4-pyrimidinyl)-1-(1H-1,2,4-triazol-1-yl)-butan-2-ol]
  solubility in N-methylpyrrolidone: extremely high
